Data taken from the kinase profiling compilation of Christmann-Franck et al. (2016).

Key:
Test in all cases: radiometric filter-binding kinase assay, Kinase HotSpot
Details in all cases: compound 0.5 µM; ATP 10 µM
RPS6KA2 KD1 KD2 (human) = RPS6KA2 KD1 KD2 (human) (UniProt Q15349)
CDC42BPA (human) = CDC42BPA (human) (UniProt Q5VT25)
MAPKAPK3 (human) = MAPKAPK3 (human) (UniProt Q16644)
KIT (human) = KIT (human) (UniProt P10721)
INSR (human) = INSR (human) (UniProt P06213)
HIPK3 (human) = HIPK3 (human) (UniProt Q9H422)
DYRK1B (human) = DYRK1B (human) (UniProt Q9Y463)
ABL2 (human) = ABL2 (human) (UniProt P42684)
Chain of ABL2 (human) (P42684 whole entry, looked up): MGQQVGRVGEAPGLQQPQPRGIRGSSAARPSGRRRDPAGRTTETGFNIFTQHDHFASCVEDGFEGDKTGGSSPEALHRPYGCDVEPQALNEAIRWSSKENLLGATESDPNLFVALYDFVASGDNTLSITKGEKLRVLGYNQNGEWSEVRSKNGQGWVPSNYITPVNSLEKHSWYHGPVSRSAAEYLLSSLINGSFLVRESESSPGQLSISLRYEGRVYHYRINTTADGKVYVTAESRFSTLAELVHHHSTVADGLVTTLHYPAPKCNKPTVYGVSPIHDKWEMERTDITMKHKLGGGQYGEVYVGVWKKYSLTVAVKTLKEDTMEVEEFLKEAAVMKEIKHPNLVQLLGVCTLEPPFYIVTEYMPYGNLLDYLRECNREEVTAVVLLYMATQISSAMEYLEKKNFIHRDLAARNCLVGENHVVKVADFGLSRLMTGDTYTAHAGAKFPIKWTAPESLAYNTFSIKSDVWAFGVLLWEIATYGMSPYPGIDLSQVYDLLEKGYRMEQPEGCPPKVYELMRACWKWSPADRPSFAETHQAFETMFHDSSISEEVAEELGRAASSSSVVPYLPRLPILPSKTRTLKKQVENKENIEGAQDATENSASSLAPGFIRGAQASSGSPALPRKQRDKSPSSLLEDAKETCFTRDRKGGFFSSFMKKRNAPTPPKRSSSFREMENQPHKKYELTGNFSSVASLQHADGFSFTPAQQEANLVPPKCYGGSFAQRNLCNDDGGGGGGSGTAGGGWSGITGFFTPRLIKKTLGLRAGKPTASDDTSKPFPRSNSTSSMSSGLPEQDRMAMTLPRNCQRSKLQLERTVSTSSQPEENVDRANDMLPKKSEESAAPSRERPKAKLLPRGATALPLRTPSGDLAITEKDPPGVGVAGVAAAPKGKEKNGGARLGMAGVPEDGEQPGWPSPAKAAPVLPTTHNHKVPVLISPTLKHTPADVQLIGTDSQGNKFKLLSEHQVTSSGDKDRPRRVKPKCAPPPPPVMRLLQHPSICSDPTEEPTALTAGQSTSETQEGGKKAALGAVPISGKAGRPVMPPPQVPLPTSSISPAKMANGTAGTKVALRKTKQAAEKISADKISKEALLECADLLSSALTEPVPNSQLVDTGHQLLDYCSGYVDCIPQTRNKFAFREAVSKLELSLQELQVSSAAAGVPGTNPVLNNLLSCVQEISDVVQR

FLT1 (human) = FLT1 (human) (UniProt P17948)
RET (human) = RET (human) (UniProt P07949)
SRPK1 (human) = SRPK1 (human) (UniProt Q96SB4)
EPHA8 (human) = EPHA8 (human) (UniProt P29322)
Chain of EPHA8 (human) (P29322 whole entry, looked up): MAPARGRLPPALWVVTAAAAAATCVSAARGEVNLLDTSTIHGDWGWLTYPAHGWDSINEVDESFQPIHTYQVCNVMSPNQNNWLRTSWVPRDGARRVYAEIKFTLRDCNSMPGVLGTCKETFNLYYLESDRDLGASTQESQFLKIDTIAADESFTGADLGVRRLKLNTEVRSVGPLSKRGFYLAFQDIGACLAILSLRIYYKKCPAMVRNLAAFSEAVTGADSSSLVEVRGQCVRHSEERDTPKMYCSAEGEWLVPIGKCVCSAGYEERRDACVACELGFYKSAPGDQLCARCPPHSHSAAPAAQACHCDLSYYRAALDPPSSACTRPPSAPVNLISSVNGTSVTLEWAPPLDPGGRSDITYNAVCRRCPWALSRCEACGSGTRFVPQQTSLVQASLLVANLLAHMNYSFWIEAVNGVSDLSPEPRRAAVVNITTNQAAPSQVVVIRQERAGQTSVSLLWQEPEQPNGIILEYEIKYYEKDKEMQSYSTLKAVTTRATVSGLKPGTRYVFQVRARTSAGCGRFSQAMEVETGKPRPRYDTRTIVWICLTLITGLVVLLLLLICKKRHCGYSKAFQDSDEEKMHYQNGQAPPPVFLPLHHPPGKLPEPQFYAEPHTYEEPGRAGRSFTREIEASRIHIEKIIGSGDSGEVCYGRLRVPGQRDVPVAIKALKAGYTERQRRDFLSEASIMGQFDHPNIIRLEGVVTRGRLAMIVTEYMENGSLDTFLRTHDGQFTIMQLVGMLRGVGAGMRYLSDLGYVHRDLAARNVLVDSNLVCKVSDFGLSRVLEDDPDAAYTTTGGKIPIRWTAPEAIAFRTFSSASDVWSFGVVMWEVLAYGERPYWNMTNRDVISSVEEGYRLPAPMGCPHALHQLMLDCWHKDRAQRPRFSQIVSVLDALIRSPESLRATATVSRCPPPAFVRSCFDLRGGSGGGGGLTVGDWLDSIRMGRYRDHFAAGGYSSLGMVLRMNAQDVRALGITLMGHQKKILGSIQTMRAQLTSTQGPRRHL

MUSK (human) = MUSK (human) (UniProt O15146)
TAOK3 (human) = TAOK3 (human) (UniProt Q9H2K8)
SRC (human) = SRC (human) (UniProt P12931)
CHUK (human) = CHUK (human) (UniProt O15111)
ULK2 (human) = ULK2 (human) (UniProt Q8IYT8)
PHKG1 (human) = PHKG1 (human) (UniProt Q16816)
MAP3K8 (human) = MAP3K8 (human) (UniProt P41279)
LCK (human) = LCK (human) (UniProt P06239)
TGFBR2 (human) = TGFBR2 (human) (UniProt P37173)
PRKG2 (human) = PRKG2 (human) (UniProt Q13237)
CDK3 CCNE1 (human) = CDK3 CCNE1 (human) (UniProt Q00526+P24864)
FGFR4 (human) = FGFR4 (human) (UniProt P22455)
TBK1 (human) = TBK1 (human) (UniProt Q9UHD2)
DAPK1 (human) = DAPK1 (human) (UniProt P53355)
Chain of DAPK1 (human) (P53355 whole entry, looked up): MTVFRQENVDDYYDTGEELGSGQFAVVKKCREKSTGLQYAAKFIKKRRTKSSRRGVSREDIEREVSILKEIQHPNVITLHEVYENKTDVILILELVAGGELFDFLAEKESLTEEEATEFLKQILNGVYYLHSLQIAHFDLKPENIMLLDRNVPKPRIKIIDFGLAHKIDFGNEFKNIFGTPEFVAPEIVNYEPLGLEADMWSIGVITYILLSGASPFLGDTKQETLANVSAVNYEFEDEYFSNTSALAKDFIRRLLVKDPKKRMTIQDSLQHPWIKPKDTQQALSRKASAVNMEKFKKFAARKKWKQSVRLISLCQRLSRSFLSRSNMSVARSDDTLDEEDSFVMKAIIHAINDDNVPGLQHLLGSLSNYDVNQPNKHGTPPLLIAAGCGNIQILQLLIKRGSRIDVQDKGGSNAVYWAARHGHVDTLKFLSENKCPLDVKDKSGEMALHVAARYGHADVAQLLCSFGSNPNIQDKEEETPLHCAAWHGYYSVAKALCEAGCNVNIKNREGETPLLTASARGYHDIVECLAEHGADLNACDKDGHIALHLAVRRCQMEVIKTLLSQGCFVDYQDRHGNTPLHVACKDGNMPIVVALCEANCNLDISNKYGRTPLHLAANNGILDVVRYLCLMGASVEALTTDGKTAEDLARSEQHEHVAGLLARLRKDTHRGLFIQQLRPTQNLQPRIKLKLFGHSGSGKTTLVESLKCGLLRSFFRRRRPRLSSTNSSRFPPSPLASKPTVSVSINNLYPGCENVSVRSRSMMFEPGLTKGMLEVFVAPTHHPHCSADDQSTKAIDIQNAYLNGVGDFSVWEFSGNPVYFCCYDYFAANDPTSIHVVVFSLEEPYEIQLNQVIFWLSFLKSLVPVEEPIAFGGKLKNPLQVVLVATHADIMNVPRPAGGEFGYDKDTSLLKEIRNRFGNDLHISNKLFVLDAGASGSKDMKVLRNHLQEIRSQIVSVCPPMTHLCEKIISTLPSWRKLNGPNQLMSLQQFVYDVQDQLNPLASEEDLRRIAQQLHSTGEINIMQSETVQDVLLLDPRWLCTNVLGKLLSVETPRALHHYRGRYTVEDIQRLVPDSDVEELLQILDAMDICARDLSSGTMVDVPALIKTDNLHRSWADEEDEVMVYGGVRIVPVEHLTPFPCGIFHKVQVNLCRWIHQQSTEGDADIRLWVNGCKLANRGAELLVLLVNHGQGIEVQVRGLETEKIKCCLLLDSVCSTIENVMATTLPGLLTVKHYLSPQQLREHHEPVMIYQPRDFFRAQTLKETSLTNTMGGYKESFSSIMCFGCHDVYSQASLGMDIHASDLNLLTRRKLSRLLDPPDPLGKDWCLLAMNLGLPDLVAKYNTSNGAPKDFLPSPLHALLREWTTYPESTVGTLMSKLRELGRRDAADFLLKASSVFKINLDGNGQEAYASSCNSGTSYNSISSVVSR

IKBKB (human) = IKBKB (human) (UniProt O14920)
CSK (human) = CSK (human) (UniProt P41240)
Chain of CSK (human) (P41240 whole entry, looked up): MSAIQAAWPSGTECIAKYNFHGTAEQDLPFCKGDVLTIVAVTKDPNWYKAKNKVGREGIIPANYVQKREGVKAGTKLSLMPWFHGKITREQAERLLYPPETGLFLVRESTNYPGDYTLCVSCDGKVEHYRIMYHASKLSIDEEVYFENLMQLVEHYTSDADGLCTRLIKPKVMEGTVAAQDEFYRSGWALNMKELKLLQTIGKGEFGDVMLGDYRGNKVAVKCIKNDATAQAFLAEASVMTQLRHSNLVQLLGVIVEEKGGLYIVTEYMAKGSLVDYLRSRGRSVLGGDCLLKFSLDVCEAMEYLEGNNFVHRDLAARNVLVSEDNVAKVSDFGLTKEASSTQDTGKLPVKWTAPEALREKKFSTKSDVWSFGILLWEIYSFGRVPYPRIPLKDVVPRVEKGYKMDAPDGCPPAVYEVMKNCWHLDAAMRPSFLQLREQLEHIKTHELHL

AKT2 (human) = AKT2 (human) (UniProt P31751)
PAK2 (human) = PAK2 (human) (UniProt Q13177)
PAK1 (human) = PAK1 (human) (UniProt Q13153)
PKN1 (human) = PKN1 (human) (UniProt Q16512)
VRK1 (human) = VRK1 (human) (UniProt Q99986)
MAP4K5 (human) = MAP4K5 (human) (UniProt Q9Y4K4)
NEK9 (human) = NEK9 (human) (UniProt Q8TD19)
RPS6KA1 KD1 KD2 (human) = RPS6KA1 KD1 KD2 (human) (UniProt Q15418)
STK3 (human) = STK3 (human) (UniProt Q13188)
CAMK1 (human) = CAMK1 (human) (UniProt Q14012)
MAPK11 (human) = MAPK11 (human) (UniProt Q15759)
Chain of MAPK11 (human) (Q15759 whole entry, looked up): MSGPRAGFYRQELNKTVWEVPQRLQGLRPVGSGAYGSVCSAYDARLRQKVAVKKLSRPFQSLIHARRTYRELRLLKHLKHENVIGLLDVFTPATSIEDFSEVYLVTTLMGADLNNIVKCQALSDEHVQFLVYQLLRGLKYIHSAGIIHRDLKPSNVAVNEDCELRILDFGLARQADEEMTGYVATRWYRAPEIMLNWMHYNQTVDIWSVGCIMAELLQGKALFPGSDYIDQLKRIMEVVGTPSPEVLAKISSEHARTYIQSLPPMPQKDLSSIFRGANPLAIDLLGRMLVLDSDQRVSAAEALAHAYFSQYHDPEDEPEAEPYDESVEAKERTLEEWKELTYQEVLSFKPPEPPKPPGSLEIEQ

RPS6KB1 (human) = RPS6KB1 (human) (UniProt P23443)
NEK6 (human) = NEK6 (human) (UniProt Q9HC98)
ACVR1 (human) = ACVR1 (human) (UniProt Q04771)

Chain of MAPKAPK3 (human) (Q16644 whole entry, looked up): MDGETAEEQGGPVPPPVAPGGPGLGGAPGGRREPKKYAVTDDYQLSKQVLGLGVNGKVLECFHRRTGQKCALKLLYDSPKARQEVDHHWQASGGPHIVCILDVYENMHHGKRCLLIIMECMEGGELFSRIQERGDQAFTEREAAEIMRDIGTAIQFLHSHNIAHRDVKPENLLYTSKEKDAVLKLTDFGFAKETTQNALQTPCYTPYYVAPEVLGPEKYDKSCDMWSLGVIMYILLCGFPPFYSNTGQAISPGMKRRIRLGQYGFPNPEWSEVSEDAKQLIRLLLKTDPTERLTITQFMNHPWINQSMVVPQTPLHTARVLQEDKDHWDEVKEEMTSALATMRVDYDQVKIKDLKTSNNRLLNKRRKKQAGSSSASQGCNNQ

`CN([C@@H](Cc1ccc(OS(=O)(=O)c2cccc3cnccc23)cc1)C(=O)N1CCN(c2ccccc2)CC1)S(=O)(=O)c1cccc2cnccc12` was tested, and the residual activity (RPS6KA2 KD1 KD2 (human)) was 102%, the residual activity (CDC42BPA (human)) was 98.9% and the residual activity (MAPKAPK3 (human)) was 101%. It also gave a residual activity (KIT (human)) of 96.3%, a residual activity (INSR (human)) of 98.8% and a residual activity (HIPK3 (human)) of 110%. It also gave a residual activity (DYRK1B (human)) of 101%, a residual activity (ABL2 (human)) of 98.9% and a residual activity (FLT1 (human)) of 86.5%. For the same compound, the residual activity (RET (human)) was 105%, the residual activity (SRPK1 (human)) was 104% and the residual activity (EPHA8 (human)) was 99.6%. The residual activity (MUSK (human)) was 92.7%, the residual activity (TAOK3 (human)) was 89.9% and the residual activity (SRC (human)) was 91.3%. For the same compound, the residual activity (CHUK (human)) was 93.4%, the residual activity (ULK2 (human)) was 106% and the residual activity (PHKG1 (human)) was 93.4%. The residual activity (MAP3K8 (human)) was 99.3%, the residual activity (LCK (human)) was 97.5% and the residual activity (TGFBR2 (human)) was 101%. The residual activity (PRKG2 (human)) was 99.5%, the residual activity (CDK3 CCNE1 (human)) was 101% and the residual activity (FGFR4 (human)) was 110%. For the same compound, the residual activity (TBK1 (human)) was 101%, the residual activity (DAPK1 (human)) was 117% and the residual activity (IKBKB (human)) was 96.7%. For the same compound, the residual activity (CSK (human)) was 96.2%, the residual activity (AKT2 (human)) was 106% and the residual activity (PAK2 (human)) was 99.1%. For the same compound, the residual activity (PAK1 (human)) was 95.7%, the residual activity (PKN1 (human)) was 105% and the residual activity (VRK1 (human)) was 92.1%. It also gave a residual activity (MAP4K5 (human)) of 96.3%, a residual activity (NEK9 (human)) of 97.6% and a residual activity (RPS6KA1 KD1 KD2 (human)) of 109%. It also gave a residual activity (STK3 (human)) of 98.8%, a residual activity (CAMK1 (human)) of 105% and a residual activity (MAPK11 (human)) of 98.9%. The residual activity (RPS6KB1 (human)) was 101%, the residual activity (NEK6 (human)) was 101% and the residual activity (ACVR1 (human)) was 95%.
Compound `O=C1NC(=O)C(c2c[nH]c3ccccc23)=C1c1c[nH]c2ccccc12` has a residual activity (RPS6KA2 KD1 KD2 (human)) of 11.5%, a residual activity (CDC42BPA (human)) of 89.9% and a residual activity (MAPKAPK3 (human)) of 90.5%. The residual activity (KIT (human)) was 68.5%, the residual activity (INSR (human)) was 99.6% and the residual activity (HIPK3 (human)) was 96%. The residual activity (DYRK1B (human)) was 86.8%, the residual activity (ABL2 (human)) was 82.3% and the residual activity (FLT1 (human)) was 53.9%. It also gave a residual activity (RET (human)) of 80.6%, a residual activity (SRPK1 (human)) of 89.4% and a residual activity (EPHA8 (human)) of 103%. The residual activity (MUSK (human)) was 76.4%, the residual activity (TAOK3 (human)) was 85.2% and the residual activity (SRC (human)) was 93.7%. It also gave a residual activity (CHUK (human)) of 93.4%, a residual activity (ULK2 (human)) of 92.9% and a residual activity (PHKG1 (human)) of 74.9%. The residual activity (MAP3K8 (human)) was 90.8%, the residual activity (LCK (human)) was 85.1% and the residual activity (TGFBR2 (human)) was 95.5%. The residual activity (PRKG2 (human)) was 52.6%, the residual activity (CDK3 CCNE1 (human)) was 91.5% and the residual activity (FGFR4 (human)) was 87.8%. It also gave a residual activity (TBK1 (human)) of 84%, a residual activity (DAPK1 (human)) of 79.4% and a residual activity (IKBKB (human)) of 106%. For the same compound, the residual activity (CSK (human)) was 103%, the residual activity (AKT2 (human)) was 102% and the residual activity (PAK2 (human)) was 97%. The residual activity (PAK1 (human)) was 83.5%, the residual activity (PKN1 (human)) was 84.6% and the residual activity (VRK1 (human)) was 109%. For the same compound, the residual activity (MAP4K5 (human)) was 87.1%, the residual activity (NEK9 (human)) was 97.3% and the residual activity (RPS6KA1 KD1 KD2 (human)) was 57.6%. The residual activity (STK3 (human)) was 64.7%, the residual activity (CAMK1 (human)) was 105% and the residual activity (MAPK11 (human)) was 89%. It also gave a residual activity (RPS6KB1 (human)) of 75.6%, a residual activity (NEK6 (human)) of 101% and a residual activity (ACVR1 (human)) of 97.1%.
